Measured values taken from patent US20250222082A1, “PROTEIN AND PEPTIDE VACCINES TARGETING METHANOGENS” (Arkea Bio Corp., priority 2024, published 2025).
Where two headings read alike, the source gives them in different places. Values belong to the molecule of their own block, whether it stands above or below them.

How the values were obtained:
[1] = buffer, 24 h
Experimental: (§1) The solution was then placed in an ultrasonic bath for ˜4 hr and then allowed to equilibrate over 24 h.

[2] = test system: Mbb. ruminantium, Ms. mazei, and Mm. mobile; conditions: cited from earlier work
[3] = Adsorbent study: reduction of 3NOP concentration in solution (HPLC 230 nm); conditions: 0.2 g of adsorbent in 10 mL of 1% 3NOP/H2O; 24 h; control 8.258 mM
Experimental: as §1

methane production = conditions: cited from earlier work
[4] = 3NOP volatility (mass loss in open vial); type: physicochemical; conditions: 500 mg in 5 dram vial open to air, ˜18-24 C, 15-30% RH, 6 days
Experimental: 3NOP Volatility: 500 mg of 3NOP in a 5 dram vial was left open to air at ˜18-24 C at 15-30% RH over the course of 6 days. Average mass loss is ˜0.25% per day.

[5] = 3NOP pH and temperature stability (HPLC); type: physicochemical; conditions: 1-month time period, 4-30 C, pH 4-10
Excerpt: 3NOP pH and Temperature Stability: Confirmed via HPLC over a 1-month time period at temperature between 4-30 C and pH 4-10.

3NOP concentration remaining in solution ([1]; 50 mg/mL): 19.782 mM
Molecule: N=C(N)NCCC[C@H](N)C(=O)O [Arginine]

Molecule: O=S(=O)(O)CCCBr [BPS, 3-bromopropanesulfonate]
sensitivity of methanogens in pure cultures ([2]; up to 250 μmol/L, all three species): resistant

Molecule: O=C([O-])CC(O)(CC(=O)[O-])C(=O)[O-].[Bi+3] [Bismuth Citrate]
3NOP concentration remaining in solution [3]: 8.072 mM

Molecule: O=S(=O)([O-])[O-].O=S(=O)([O-])[O-].O=S(=O)([O-])[O-].[Bi+3].[Bi+3] [Bismuth Sulfate]
3NOP concentration remaining in solution [3]: 8.079 mM

Molecule: O=S(=O)([O-])[O-].[Cu+2] [Copper Sulfate]
3NOP concentration remaining in solution [3]: 7.814 mM

3NOP concentration remaining in solution ([1]; 20 mg/mL): 7.588 mM
Molecule: NC(=O)CC[C@H](N)C(=O)O [Glutamine]

Molecule: O=[N+]([O-])OCCCO [Group 3NOP, 3-Nitrooxypropanol]
maximum methane suppression amount (methane production; 60 mg/kg of feed dry matter): 26%/day (Melgar et al., 2020) | 3NOP Volatility: average mass loss [4]: ~0.25 % per day | 3NOP pH and Temperature Stability [5]: Confirmed

Molecule: NCCCC[C@H](N)C(=O)O [Lysine]
3NOP concentration remaining in solution ([1]; 50 mg/mL): 18.583 mM

Molecule: O=[N+]([O-])O [Nitrate]
maximum methane suppression amount (methane production; 5 mM): 5 mM; 43.26% Lin rt al., 2017) | maximum methane suppression amount (methane production; 5 mmol/L): 5 mmol/L; 32.92% | maximum methane suppression amount (methane production; 20 mg/g dry matter): 20 mg/g dry matter; 21%

Molecule: O=c1[nH]c(=O)c2nccnc2[nH]1 [lumazin, 2,4-pteridinedione]
CH4 production by Mbb. ruminantium, Ms. mazei, and Mm. mobile ([2]; dose-dependent from 0.06 to 0.24 mmol/L): significantly decreased

Molecule: Cyclodextrin
3NOP concentration remaining in solution [3]: 7.676 mM
